In PubChem BioAssay AID1963865 (Molecular Pharmacology Branch, DTP, NCI, 2024):

System: KRAS PDC multicell spheroid viability
Test: Anticancer human tumor 825966-067-R-J1-PDC patient-derived colon carcinoma cell line growth inhibition [KRAS2]
Settings: for IC50: curve of first compound; for viability, T/C: stronger effect = lower value
In short: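 KRAS-mutant tumor cells were grown as spheroids with HUVEC endothelial cells and human MSCs as stroma. Targeted agents were tested alone and with KRAS pathway inhibitors. Doses started at or near clinical Cmax, or 10 microM, descending half-log.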

[1] = second compound 0.1 µM, first compound 0.01 µM
[2] = second compound 0.1 µM, first compound 0.0316 µM
[3] = second compound 0.1 µM, first compound 0.1 µM
[4] = second compound 0.1 µM, first compound 0.316 µM
[5] = second compound 0.1 µM, first compound 1 µM
[6] = second compound 0.1 µM, first compound 3.16 µM
[7] = second compound 0.316 µM, first compound 0.01 µM
[8] = second compound 0.316 µM, first compound 0.0316 µM
[9] = second compound 0.316 µM, first compound 0.1 µM
[10] = second compound 0.316 µM, first compound 0.316 µM
[11] = second compound 0.316 µM, first compound 1 µM
[12] = second compound 0.316 µM, first compound 3.16 µM
[13] = second compound 1 µM, first compound 0.01 µM
[14] = second compound 1 µM, first compound 0.0316 µM
[15] = second compound 1 µM, first compound 0.1 µM
[16] = second compound 1 µM, first compound 0.316 µM
[17] = second compound 1 µM, first compound 1 µM
[18] = second compound 1 µM, first compound 3.16 µM
[19] = second compound 3.16 µM, first compound 0.01 µM
[20] = second compound 3.16 µM, first compound 0.0316 µM
[21] = second compound 3.16 µM, first compound 0.1 µM
[22] = second compound 3.16 µM, first compound 0.316 µM
[23] = second compound 3.16 µM, first compound 1 µM
[24] = second compound 3.16 µM, first compound 3.16 µM
[25] = second compound 10 µM, first compound 0.01 µM
[26] = second compound 10 µM, first compound 0.0316 µM
[27] = second compound 10 µM, first compound 0.1 µM
[28] = second compound 10 µM, first compound 0.316 µM
[29] = second compound 10 µM, first compound 1 µM
[30] = second compound 10 µM, first compound 3.16 µM
[31] = second compound 0.1 µM, first compound 10 µM
[32] = second compound 0.316 µM, first compound 10 µM
[33] = second compound 1 µM, first compound 10 µM
[34] = second compound 3.16 µM, first compound 10 µM
[35] = second compound 10 µM, first compound 10 µM
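Further: spheroids exposed to compounds for 7 days.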
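Wherever viability, T/C is given: 100% = DMSO vehicle control viability.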

## CC(=O)OC12COC1CC(O)C1(C)C(=O)C(O)C3=C(C)C(OC(=O)C(O)C(NC(=O)OC(C)(C)C)c4ccccc4)CC(O)(C(OC(=O)c4ccccc4)C21)C3(C)C (stereo not given) + CC1OCC2(CCN(c3cnc(Sc4ccnc(N)c4Cl)c(N)n3)CC2)C1N
Second compound 0.1 µM
  IC50: < 10 nM
Second compound 0.316 µM
  IC50: < 10 nM
Second compound 1 µM
  IC50: < 10 nM
Second compound 3.16 µM
  IC50: < 10 nM
Second compound 10 µM
  IC50: < 10 nM
[1]
  viability, T/C: 17.9%
[2]
  viability, T/C: 15.2%
[3]
  viability, T/C: 18.4%
[4]
  viability, T/C: 17.1%
[5]
  viability, T/C: 17.3%
[6]
  viability, T/C: 22%
[7]
  viability, T/C: 13.1%
[8]
  viability, T/C: 12%
[9]
  viability, T/C: 13.3%
[10]
  viability, T/C: 12%
[11]
  viability, T/C: 15.8%
[12]
  viability, T/C: 15.9%
[13]
  viability, T/C: 17.5%
[14]
  viability, T/C: 18%
[15]
  viability, T/C: 18.9%
[16]
  viability, T/C: 12.3%
[17]
  viability, T/C: 13%
[18]
  viability, T/C: 21.6%
[19]
  viability, T/C: 10.3%
[20]
  viability, T/C: 10.2%
[21]
  viability, T/C: 10.7%
[22]
  viability, T/C: 6.99%
[23]
  viability, T/C: 7.72%
[24]
  viability, T/C: 11.7%
[25]
  viability, T/C: 7.08%
[26]
  viability, T/C: 7.25%
[27]
  viability, T/C: 10%
[28]
  viability, T/C: 6.28%
[29]
  viability, T/C: 4.82%
[30]
  viability, T/C: 10.1%

## CC(C)NCC(C(=O)N1CCN(c2ncnc3c2C(C)CC3O)CC1)c1ccc(Cl)cc1 (stereo not given) + C=CC(=O)N1CCN(c2nc(OCC3CCCN3C)nc3c2CCN(c2cccc4cccc(C)c24)C3)CC1CC#N
Second compound 0.0316 µM
  IC50: 2180 nM
Second compound 0.1 µM
  IC50: 2430 nM
Second compound 0.316 µM
  IC50: 2140 nM
Second compound 1 µM
  IC50: 1870 nM
Second compound 3.16 µM
  IC50: 447 nM
Second compound 0.0316 µM, first compound 0.0316 µM
  viability, T/C: 105%
Second compound 0.0316 µM, first compound 0.1 µM
  viability, T/C: 114%
Second compound 0.0316 µM, first compound 0.316 µM
  viability, T/C: 131%
Second compound 0.0316 µM, first compound 1 µM
  viability, T/C: 94.2%
Second compound 0.0316 µM, first compound 3.16 µM
  viability, T/C: 29.3%
Second compound 0.0316 µM, first compound 10 µM
  viability, T/C: 10.8%
[2]
  viability, T/C: 83.8%
[3]
  viability, T/C: 99.2%
[4]
  viability, T/C: 126%
[5]
  viability, T/C: 126%
[6]
  viability, T/C: 32.3%
[31]
  viability, T/C: 9.94%
[8]
  viability, T/C: 87.7%
[9]
  viability, T/C: 118%
[10]
  viability, T/C: 137%
[11]
  viability, T/C: 101%
[12]
  viability, T/C: 23.3%
[32]
  viability, T/C: 9.48%
[14]
  viability, T/C: 86.9%
[15]
  viability, T/C: 98.3%
[16]
  viability, T/C: 124%
[17]
  viability, T/C: 88.1%
[18]
  viability, T/C: 17.6%
[33]
  viability, T/C: 5.49%
[20]
  viability, T/C: 84.5%
[21]
  viability, T/C: 56.9%
[22]
  viability, T/C: 66%
[23]
  viability, T/C: 13.9%
[24]
  viability, T/C: 2.27%
[34]
  viability, T/C: 0.81%

## CC(C)NCC(C(=O)N1CCN(c2ncnc3c2C(C)CC3O)CC1)c1ccc(Cl)cc1 (stereo not given) + CC1OCC2(CCN(c3cnc(Sc4ccnc(N)c4Cl)c(N)n3)CC2)C1N
Second compound 0.1 µM
  IC50: 4490 nM
Second compound 0.316 µM
  IC50: 4130 nM
Second compound 1 µM
  IC50: 2550 nM
Second compound 3.16 µM
  IC50: 1420 nM
Second compound 10 µM
  IC50: 35.8 nM
[2]
  viability, T/C: 73.2%
[3]
  viability, T/C: 97.8%
[4]
  viability, T/C: 129%
[5]
  viability, T/C: 87.9%
[6]
  viability, T/C: 67.5%
[31]
  viability, T/C: 11.6%
[8]
  viability, T/C: 86.3%
[9]
  viability, T/C: 121%
[10]
  viability, T/C: 145%
[11]
  viability, T/C: 122%
[12]
  viability, T/C: 60.6%
[32]
  viability, T/C: 14.5%
[14]
  viability, T/C: 92.9%
[15]
  viability, T/C: 102%
[16]
  viability, T/C: 133%
[17]
  viability, T/C: 112%
[18]
  viability, T/C: 36.2%
[33]
  viability, T/C: 12.1%
[20]
  viability, T/C: 102%
[21]
  viability, T/C: 107%
[22]
  viability, T/C: 137%
[23]
  viability, T/C: 67.7%
[24]
  viability, T/C: 13.4%
[34]
  viability, T/C: 5.28%
[26]
  viability, T/C: 53.1%
[27]
  viability, T/C: 29.5%
[28]
  viability, T/C: 21.9%
[29]
  viability, T/C: 6.39%
[30]
  viability, T/C: 4.52%
[35]
  viability, T/C: 4.31%

## COc1cc2nccc(Oc3ccc(NC(=O)C4(C(=O)Nc5ccc(F)cc5)CC4)cc3)c2cc1OC + C=CC(=O)N1CCN(c2nc(=O)n(-c3c(C)ccnc3C(C)C)c3nc(-c4c(O)cccc4F)c(F)cc23)C(C)C1
Second compound 0.1 µM
  IC50: 1730 nM
Second compound 0.316 µM
  IC50: 1590 nM
Second compound 1 µM
  IC50: 1690 nM
Second compound 3.16 µM
  IC50: 1520 nM
Second compound 10 µM
  IC50: 461 nM
[2]
  viability, T/C: 108%
[3]
  viability, T/C: 111%
[4]
  viability, T/C: 81.8%
[5]
  viability, T/C: 88.8%
[6]
  viability, T/C: 6.77%
[31]
  viability, T/C: 8.36%
[8]
  viability, T/C: 91.1%
[9]
  viability, T/C: 122%
[10]
  viability, T/C: 71.7%
[11]
  viability, T/C: 78.3%
[12]
  viability, T/C: 6.54%
[32]
  viability, T/C: 10.2%
[14]
  viability, T/C: 111%
[15]
  viability, T/C: 118%
[16]
  viability, T/C: 85.8%
[17]
  viability, T/C: 87.5%
[18]
  viability, T/C: 2.49%
[33]
  viability, T/C: 8.75%
[20]
  viability, T/C: 88.4%
[21]
  viability, T/C: 77%
[22]
  viability, T/C: 90%
[23]
  viability, T/C: 76.1%
[24]
  viability, T/C: 2.99%
[34]
  viability, T/C: 6.07%
[26]
  viability, T/C: 97.4%
[27]
  viability, T/C: 78.5%
[28]
  viability, T/C: 56.1%
[29]
  viability, T/C: 41.7%
[30]
  viability, T/C: 2%
[35]
  viability, T/C: 2.5%

## Cn1ncnc1[C@H]1c2n[nH]c(=O)c3cc(F)cc(c23)N[C@@H]1c1ccc(F)cc1 + COc1cc2nc(C)nc(NC(C)c3cc(N)cc(C(F)(F)F)c3)c2cc1OC1CCOC1
Second compound 0.1 µM
  IC50: > 100 nM
Second compound 0.316 µM
  IC50: > 100 nM
Second compound 1 µM
  IC50: > 100 nM
Second compound 3.16 µM
  IC50: > 100 nM
Second compound 10 µM
  IC50: < 0.316 nM
Second compound 0.1 µM, first compound 0.000316 µM
  viability, T/C: 92.2%
Second compound 0.1 µM, first compound 0.001 µM
  viability, T/C: 89.3%
Second compound 0.1 µM, first compound 0.00316 µM
  viability, T/C: 90.6%
[1]
  viability, T/C: 76.7%
[2]
  viability, T/C: 83.9%
[3]
  viability, T/C: 70.9%
Second compound 0.316 µM, first compound 0.000316 µM
  viability, T/C: 86.3%
Second compound 0.316 µM, first compound 0.001 µM
  viability, T/C: 94.4%
Second compound 0.316 µM, first compound 0.00316 µM
  viability, T/C: 82.4%
[7]
  viability, T/C: 101%
[8]
  viability, T/C: 65.3%
[9]
  viability, T/C: 64.4%
Second compound 1 µM, first compound 0.000316 µM
  viability, T/C: 86.3%
Second compound 1 µM, first compound 0.001 µM
  viability, T/C: 99.4%
Second compound 1 µM, first compound 0.00316 µM
  viability, T/C: 107%
[13]
  viability, T/C: 79.2%
[14]
  viability, T/C: 84.2%
[15]
  viability, T/C: 92.1%
Second compound 3.16 µM, first compound 0.000316 µM
  viability, T/C: 116%
Second compound 3.16 µM, first compound 0.001 µM
  viability, T/C: 103%
Second compound 3.16 µM, first compound 0.00316 µM
  viability, T/C: 114%
[19]
  viability, T/C: 94.7%
[20]
  viability, T/C: 105%
[21]
  viability, T/C: 89.3%
Second compound 10 µM, first compound 0.000316 µM
  viability, T/C: 11.3%
Second compound 10 µM, first compound 0.001 µM
  viability, T/C: 10.4%
Second compound 10 µM, first compound 0.00316 µM
  viability, T/C: 17.1%
[25]
  viability, T/C: 21.1%
[26]
  viability, T/C: 11.8%
[27]
  viability, T/C: 7.86%

## COc1cc(Nc2ncc3c(n2)-c2ccc(Cl)cc2C(c2c(F)cccc2OC)=NC3)ccc1C(=O)O + C=CC(=O)N1CCN(c2nc(=O)n(-c3c(C)ccnc3C(C)C)c3nc(-c4c(O)cccc4F)c(F)cc23)C(C)C1
Second compound 0.1 µM
  IC50: > 10000 nM
Second compound 0.316 µM
  IC50: > 10000 nM
Second compound 1 µM
  IC50: > 10000 nM
Second compound 3.16 µM
  IC50: > 10000 nM
Second compound 10 µM
  IC50: > 10000 nM
[2]
  viability, T/C: 144%
[3]
  viability, T/C: 117%
[4]
  viability, T/C: 141%
[5]
  viability, T/C: 140%
[6]
  viability, T/C: 138%
[31]
  viability, T/C: 133%
[8]
  viability, T/C: 116%
[9]
  viability, T/C: 107%
[10]
  viability, T/C: 135%
[11]
  viability, T/C: 140%
[12]
  viability, T/C: 154%
[32]
  viability, T/C: 134%
[14]
  viability, T/C: 88.9%
[15]
  viability, T/C: 107%
[16]
  viability, T/C: 96%
[17]
  viability, T/C: 127%
[18]
  viability, T/C: 123%
[33]
  viability, T/C: 118%
[20]
  viability, T/C: 104%
[21]
  viability, T/C: 93.5%
[22]
  viability, T/C: 142%
[23]
  viability, T/C: 118%
[24]
  viability, T/C: 144%
[34]
  viability, T/C: 103%
[26]
  viability, T/C: 83.3%
[27]
  viability, T/C: 66%
[28]
  viability, T/C: 97.7%
[29]
  viability, T/C: 79.5%
[30]
  viability, T/C: 116%
[35]
  viability, T/C: 90.5%
